Measurements published in US6589970B2, “6-(aryl-amido or aryl-amidomethyl)-naphthalen-2-yloxy-acidic derivatives as inhibitors of plasminogen activator inhibitor type-1 (PAI-1)” (Wyeth, priority 2001, dated 2003).
Structures can show the parent of a compound that is named as a salt.

Molecular target: T1, recombinant human plasminogen activator inhibitor-1 (PAI-1) (Homo sapiens, UniProt P05121)
T1 construct: purchased Molecular Innovations, Royal Oak, Mich
Assay: Primary Screen for the PAI-1 Inhibition
Assay type: biochemical
Conditions: for inhibition at 100 µM / % Inhib. 100 μM: 100 μM test compound; for inhibition at 100 µM: read-out: % Inhib. 100 μM; for inhibition at 25 µM / % Inhib. 25 μM: 25 μM test compound; for inhibition at 25 µM: read-out: % Inhib. 25 μM
Procedure: Test compounds are dissolved in DMSO at a final concentration of 10 mM, then diluted 100× in physiologic buffer. The inhibitory assay is initiated by the addition of the test compound (1-100 μM final concentration, maximum DMSO concentration of 0.2%) in a pH 6.6 buffer containing 140 nM recombinant human plasminogen activator inhibitor-1 (PAI-1; Molecular Innovations, Royal Oak, Mich.). Following a 1 hour incubation at room temperature, 70 nM of recombinant human tissue plasminogen activator (tPA) is added, and the combination of the test compound, PAI-1 and tPA is incubated for an additional 30 minutes. Following the second incubation, Spectrozyme-tPA (American Diagnostica, Greenwich, Conn.), a chromogenic substrate for tPA, is added and absorbance read at 405 nm at 0 and 60 minutes. Relative PAI-1 inhibition is equal to the residual tPA activity in the presence of the test compound and PAI-1. Control treatments include the complete inhibition of tPA by PAI-1 at the molar ratio employed (2:1), and the absence of any effect of the test compound on tPA alone.

T1 sequence (P05121 24-402): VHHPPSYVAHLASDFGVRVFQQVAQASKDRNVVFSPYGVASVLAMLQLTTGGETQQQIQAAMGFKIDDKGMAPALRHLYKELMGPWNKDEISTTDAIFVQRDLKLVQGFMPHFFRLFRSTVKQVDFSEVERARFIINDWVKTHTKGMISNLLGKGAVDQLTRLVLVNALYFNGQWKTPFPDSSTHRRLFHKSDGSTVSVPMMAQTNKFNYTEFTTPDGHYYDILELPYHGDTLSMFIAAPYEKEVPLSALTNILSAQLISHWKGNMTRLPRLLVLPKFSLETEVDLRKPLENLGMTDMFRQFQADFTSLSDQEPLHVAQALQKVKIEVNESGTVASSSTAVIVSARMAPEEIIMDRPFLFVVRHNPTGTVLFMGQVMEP

SMILES | inhibition at 100 µM [%] | inhibition at 25 µM [%] | % Inhib. 25 μM [%] | % Inhib. 100 μM [%]
CCCCc1oc2ccccc2c1C(=O)NCc1ccc2c(Br)c(OCC(=O)O)ccc2c1 [Example 19, Sodium; (1-bromo-6-{[(2-butyl-benzofuran-3-carbonyl)-amino]-methyl}-naphthalen-2-yloxy)-acetate] | 32 |  |  | 
O=C(NCc1ccc2cc(OCc3nn[nH]n3)ccc2c1)c1cc2ccccc2o1 [Example 2] |  |  | 21 | 52
CC(C)(C)c1cc(C(=O)Nc2ccc3cc(OCC(=O)O)ccc3c2)cc(C(C)(C)C)c1 [Example 77, [6-(3,5-Di-tert-butyl-benzoylamino)-naphthalen-2yloxy]-acetic acid] | 51 | 27 |  | 
CN(Cc1ccc2c(Br)c(OCc3nnn[nH]3)ccc2c1)C(=O)c1ccc(Oc2cc(Cl)cc(Cl)c2)o1 [Example 38, 5-(3,5-Dichloro-phenoxy)-furan-2-carboxylic acid [5-bromo-6-(1H-tetrazol-5-ylmethoxy)-naphthalen-2-ylmethyl]-methyl-amide] | 81 | 47 |  | 
O=C(O)COc1ccc2cc(NC(=O)c3ccccc3OCc3ccccc3)ccc2c1 [Example 76] |  |  | 0 | 54
CCCc1c(C(=O)NCc2ccc3c(Br)c(OCC(=O)O)ccc3c2)cnn1-c1ccccc1 [Example 15, (1-Bromo-6-{[(1-phenyl-5-propyl-1H-pyrazole-4-carbonyl)-amino]-methyl}-naphthalen-2-yloxy)-acetic acid] | 92 | 5 |  | 
O=C(O)COc1ccc2cc(CNC(=O)c3cc(-c4ccc(C(F)(F)F)cc4)oc3C(F)(F)F)ccc2c1 [Example 82, [6-({[2-Trifluoromethyl-5-(4-trifluoromethyl-phenyl)-furan-3-carbonyl]-amino}methyl)-naphthalen-2-yloxy]-acetic acid] | 68 | 9 |  | 
CCCc1c(C(=O)NCc2ccc3cc(OCC(=O)O)ccc3c2)cnn1-c1ccc(Cl)cc1 [Example 13, [6-({[1-(4-Chloro-phenyl)-5-propyl-1H-pyrazole-4-carbonyl]-amino}-methyl)-naphthalen-2-yloxy]-acetic acid] | 52 | 5 |  | 
CCCCc1oc2ccccc2c1C(=O)N(CC)Cc1ccc2cc(OCc3nnn[nH]3)ccc2c1 [Example 35, 2-Butyl-benzofuran-3-carboxylic acid methyl-[6-(1H-tetrazol-5-ylmethoxy)-naphthalen-2ylmethyl]-methyl-amide] | 72 | 26 |  | 
O=C(O)COc1ccc2cc(CNC(=O)c3ccccc3CCc3ccccc3)ccc2c1 [Example 83, {6-[(2-Phenethyl-benzoylamino)-methyl]-naphthalen-2-yloxy}-acetic acid] | 45 |  |  | 
CCCCc1c(C(=O)N(C)Cc2ccc3c(Br)c(OCC(Cc4ccccc4)C(=O)O)ccc3c2)oc2ccccc12 (stereo not shown) [Example 40, 2-Benzyl-3-(1-bromo-6-{[(3-butyl-benzofuran-2-carbonyl)-methyl-amino]-methyl}-naphthalen-2-yloxy)-propionic acid] | 96 | 60 |  | 
O=C(O)COc1ccc2cc(NC(=O)c3cc(-c4ccc(-c5ccccc5)cc4)oc3C(F)(F)F)ccc2c1 [Example 78, {6-[(5-Biphenyl-4-yl-2-trifluoromethyl-furan-3-carbonyl)-amino]-naphthalen-2-yloxy}-acetic acid] | 51 | 24 |  | 
O=C(O)COc1ccc2cc(CNC(=O)c3ccc(-c4cccc(C(F)(F)F)c4)o3)ccc2c1 [Example 85, [6-({[5-(3-Trifluoromethyl-phenyl)-furan-2-carbonyl]-amino}-methyl)-naphthalen-2-yloxy]-acetic acid] | 34 |  |  | 
O=C(O)COc1ccc2cc(CNC(=O)c3cnn(-c4ccc(Cl)cc4)c3C(F)(F)F)ccc2c1Br [Example 16, [1-Bromo-6-({[1-(4-chloro-phenyl)-5-trifluoromethyl-1H-pyrazole-4-carbonyl]-amino}-methyl)-naphthalen-2-yloxy]-acetic acid] | 85 | 12 |  | 
O=C(O)COc1ccc2cc(NC(=O)C3(c4ccc(Cl)cc4)CCCCC3)ccc2c1 [Example 79, (6-{[1-(4-Chloro-phenyl)-cyclohexanecarbonyl]-amino}-naphathalen-2-yloxy)-acetic acid] |  |  | 19 | 50
CCCCc1oc2ccccc2c1C(=O)Nc1ccc2cc(OCC(=O)O)ccc2c1 [Example 4, {6-[(2-Butyl-benzofuran-3-carbonyl)-amino]-naphthalen-2-yloxy}-acetic acid sodium salt] | 66 | 3 |  | 
O=C(O)COc1ccc2cc(CNC(=O)c3cc(-c4ccc(Cl)cc4)oc3C(F)(F)F)ccc2c1 [Example 11, [6-({[5-(4-Chloro-phenyl)-2-trifluoromethyl-furan-3-carbonyl]-amino}-methyl)-naphthalen-2-yloxy]-acetic acid] | 32 |  |  | 
CCCc1c(C(=O)NCc2ccc3cc(OCC(=O)O)ccc3c2)cnn1-c1ccccc1 [Example 12, (6-{[(1-phenyl-5-propyl-1H-pyrazole-4-carbonyl)-amino]-methyl}-naphthalen-2-yloxy)-acetic acid] | 66 | 5 |  | 
O=C(O)COc1ccc2cc(CNC(=O)c3cc4ccccc4o3)ccc2c1 [Example 1] |  |  |  | 23
CCCc1c(C(=O)N(Cc2ccccc2)Cc2ccc3c(Br)c(OC(Cc4ccccc4)C(=O)O)ccc3c2)cnn1-c1ccccc1 (stereo not shown) [Example 72, 2-(6-{[Benzyl-(1-phenyl-5-propyl-1H-pyrozole-4-carbonyl)-amino]-methyl}-1-bromo-naphthalen-2-yloxy)-3-phenyl-propionic acid] |  |  | 56 | 68
O=C(O)COc1ccc2cc(NC(=O)c3ccc(-c4cccc(C(F)(F)F)c4)o3)ccc2c1 [Example 74, (6-{[5-(3-Trifluoromethyl-phenyl)-furan-2-carbonyl]-amino}-naphthalen-2-yloxy)-acetic acid] | 59 | 20 |  | 
CC(C)(C)c1cc(C(=O)NCc2ccc3cc(OCC(=O)O)ccc3c2)cc(C(C)(C)C)c1 [Example 86, {6-[(3,5-Di-tert-butyl-benzoylamino)methyl]-naphthalen-2-yloxy}-acetic acid] | 33 |  |  | 

Continued, values first:

inhibition at 100 µM [%] | inhibition at 25 µM [%] | % Inhib. 25 μM [%] | % Inhib. 100 μM [%] | SMILES
55 | 1 |  |  | O=C(O)COc1ccc2cc(NC(=O)C3(c4ccc(Cl)cc4)CCCC3)ccc2c1 [Example 75, (6-{[1-(4-Chloro-phenyl)-cyclopentanecarbonyl]-amino}-naphthalen-2-yloxy)-acetic acid]
81 | 17 |  |  | CCCc1ccc(-c2ccc(C(=O)N(Cc3ccccc3)Cc3ccc4c(Br)c(OC(Cc5ccccc5)C(=O)O)ccc4c3)cc2)cc1 (stereo not shown) [Example 70, 2-(6-{[Benzyl-(4′-propyl-biphenyl-4-carbonyl)-amino]-methyl}-1-bromo-naphthalen-2-yloxy)-3-phenyl propionic acid]
79 | 63 |  |  | Cc1c(C(=O)N(C)Cc2ccc3c(Br)c(OCC(Cc4ccccc4)C(=O)O)ccc3c2)oc2ccccc12 (stereo not shown) [Example 42, Sodium; 2-benzyl-3-(1-bromo-6-{[methyl-(3-methyl-benzofuran-2-carbonyl)-amino]-methyl}-naphthalen-2-yloxy)-propionate]
95 | 46 |  |  | CCCc1c(C(=O)N(C)Cc2ccc3c(Br)c(OC(Cc4ccccc4)C(=O)O)ccc3c2)cnn1-c1ccccc1 (stereo not shown) [Example 66, 2-(1-Bromo-6-{[methyl-(1-phenyl-5-propyl-1H-pyrazole-4-carbonyl)-amino]-methyl}-naphthalen-2-yloxy)-3-phenyl-propionic acid]
 |  |  | 30 | O=C(NCc1ccc2c(Br)c(OC(Cc3ccccc3)C(=O)O)ccc2c1)c1ccc(-c2cccc(C(F)(F)F)c2)o1 (stereo not shown) [Example 60]
69 | 14 |  |  | CCCc1ccc(-c2ccc(C(=O)N(C)Cc3ccc4c(Br)c(OC(Cc5ccccc5)C(=O)O)ccc4c3)cc2)cc1 (stereo not shown) [Example 63, 2-(1-Bromo-6-{[methyl-(4′-propyl-biphenyl-4-carbonyl)-amino]-methyl}-naphthalen-2-yloxy)-3-phenyl-propionic acid]
32 |  |  |  | O=C(O)COc1ccc2cc(CNC(=O)C3(c4ccccc4)CCCC3)ccc2c1 [Example 87, (6-{[(1-Phenyl-cyclopentanecarbonyl)-amino]-methyl}-naphthalen-2-yloxy)-acetic acid]
 |  |  | 44 | O=C(O)C(Cc1ccccc1)Oc1ccc2cc(CNC(=O)C3(c4ccc(Cl)cc4)CCCC3)ccc2c1Br (stereo not shown) [Example 59]
 |  | 47 | 78 | O=C(O)C(Cc1ccccc1)Oc1ccc2cc(CN(Cc3ccccc3)C(=O)c3ccc(C4CCCCC4)cc3)ccc2c1Br (stereo not shown) [Example 71]
84 | 1 |  |  | CCCCc1oc2ccccc2c1C(=O)N(C)Cc1ccc2c(Br)c(OC(Cc3ccccc3)C(=O)O)ccc2c1 (stereo not shown) [Example 62, 2-(1-Bromo-6-{[(2-butyl-benzofuran-3-carbonyl)-methyl-amino]-methyl}naphthalen-2-yloxy)-3-phenyl-propionic acid]
